Measurements published in EP2727916A1, “Neuroprotective multi-target directed drugs” (Universitat Autònoma de Barcelona, priority 2012, dated 2014).
“Also recorded” adds a separate entry of the source.

Columns and labels:
[1] = molecular target: T1, MAO-A (Rattus norvegicus, UniProt P21396); test: Time-dependence of MAO-A inhibition (pre-incubation times); type: biochemical
T1 construct: from tissue; host or cells: rat brain homogenate per the methods
T1 sequence (P21396 1-526): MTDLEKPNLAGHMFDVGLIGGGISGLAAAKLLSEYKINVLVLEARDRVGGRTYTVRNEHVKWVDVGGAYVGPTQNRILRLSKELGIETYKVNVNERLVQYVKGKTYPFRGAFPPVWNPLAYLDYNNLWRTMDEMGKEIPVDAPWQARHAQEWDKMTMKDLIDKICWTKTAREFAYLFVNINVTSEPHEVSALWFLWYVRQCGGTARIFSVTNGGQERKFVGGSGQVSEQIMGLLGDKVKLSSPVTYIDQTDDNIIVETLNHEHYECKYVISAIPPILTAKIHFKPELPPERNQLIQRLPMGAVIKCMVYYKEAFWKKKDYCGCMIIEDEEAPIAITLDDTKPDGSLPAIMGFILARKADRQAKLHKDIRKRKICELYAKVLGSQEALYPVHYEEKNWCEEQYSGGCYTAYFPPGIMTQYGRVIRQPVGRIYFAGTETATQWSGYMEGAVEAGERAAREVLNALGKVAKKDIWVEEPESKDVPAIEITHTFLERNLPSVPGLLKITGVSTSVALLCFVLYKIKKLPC
Procedure: (§1) Lineweaver-Burk reciprocal plots of initial velocity and substrate concentrations (0.1-1 mM) are presented. […] Lineweaver-Burk reciprocal plots of initial velocity and substrate concentrations (0.1-1 mM) are presented. […] Lineweaver-Burk reciprocal plots of initial velocity and substrate concentrations (0.1-1 mM) are presented. […] Three consecutive centrifuges were performed with buffer. […] 5 µM). All solution were made using Tris buffer pH7.4. […] 5 µM). All solution were made using Tris buffer pH7.4. […] 5 µM). All solution were made using Tris buffer pH7.4. Spectra were obtained after a Short-time incubation
Independent inhibition assays were also performed at different pre-incubation periods for both two MAO isoforms (Figure 6). […]

[2] = Metal binding assay, spectrophotometric detection of Fe(III) complex; type: physicochemical; conditions: 10 µM, Tris buffer pH7.4, Fe2(SO4)3 6.25 and 12.5 µM
Procedure: as §1, with “Spectra were obtained after a Short-time incubation” left out
It is known that 8-quinolinol is a strong chelator for biometals such iron and copper. This is an important precondition for the antioxidative-type drugs because it is the excessive iron stores and iron-mediated generation of free radicals in the brain that are thought to be associated with neurodegenerative diseases. Therefore, only chelators with a higher selectivity for iron over copper are expected to chelate iron instead of copper and have potential neuroprotective effects. […] A spectrophotometric method is used for measurement of the copper/iron-complexes stability constants of the compounds.
The metal binding assay was performed by the spectrophotometric detection of the formation of Fe(III)- and Cu(II)-6 complex.

[3] = molecular target: T2, bovine lung SSAO (Bos taurus, UniProt Q9TTK6); test: Inhibition of semicarbazide sensitive amine oxidase (SSAO), radiochemical; type: biochemical
T2 construct: and bovine lung SSAO by compounds of the invention; from tissue; host or cells: bovine lung
T2 sequence (Q9TTK6 1-763): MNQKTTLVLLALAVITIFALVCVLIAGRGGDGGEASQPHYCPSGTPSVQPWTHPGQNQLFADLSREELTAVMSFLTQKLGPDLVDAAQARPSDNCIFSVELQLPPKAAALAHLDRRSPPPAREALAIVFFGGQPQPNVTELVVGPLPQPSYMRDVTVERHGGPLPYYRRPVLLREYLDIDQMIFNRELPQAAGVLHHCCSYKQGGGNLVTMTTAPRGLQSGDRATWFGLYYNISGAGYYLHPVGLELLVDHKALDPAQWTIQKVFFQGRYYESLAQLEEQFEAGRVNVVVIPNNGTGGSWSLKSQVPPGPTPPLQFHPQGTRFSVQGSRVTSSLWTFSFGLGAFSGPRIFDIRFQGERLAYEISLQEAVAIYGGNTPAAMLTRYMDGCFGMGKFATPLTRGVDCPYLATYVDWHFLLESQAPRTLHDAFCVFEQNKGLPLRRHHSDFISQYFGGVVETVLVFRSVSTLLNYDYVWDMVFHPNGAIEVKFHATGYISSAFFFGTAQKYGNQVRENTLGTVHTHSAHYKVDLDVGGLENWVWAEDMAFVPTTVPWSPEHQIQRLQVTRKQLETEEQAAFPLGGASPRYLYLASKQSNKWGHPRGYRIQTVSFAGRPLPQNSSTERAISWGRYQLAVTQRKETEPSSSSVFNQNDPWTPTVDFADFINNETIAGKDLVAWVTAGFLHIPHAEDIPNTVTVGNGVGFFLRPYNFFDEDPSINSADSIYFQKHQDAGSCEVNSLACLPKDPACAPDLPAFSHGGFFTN

[4] = 20 µM, pre-incubation times 0-360 min

C#CCN(Cc1ccc(O)c2ncccc12)C(C#N)CCC1CCN(Cc2ccccc2)CC1 (stereo not drawn) [Compound 6, 4-(1-benzylpiperidin-4-yl)-2-(((8-hydroxyquinolin-5-yl)methyl)(prop-2-yny)amino)butanenitrile]
pre-incubation period to complete MAO-A activity inhibition [1, 4]: ≥ 180 min
time-dependence of MAO-A inhibition [1, 4]: irreversible behaviour; also recorded: time-dependent
IC50 ([1]; pre-incubation time 0 min): 29100 nM
IC50 ([1]; pre-incubation time 30 min): 5800 nM
IC50 ([1]; pre-incubation time 60 min): 2300 nM
IC50 ([1]; pre-incubation time 240 min): 700 nM
formation of Fe(III)-6 complex, UV-vis spectrum change ([2]; few minutes after addition): no significative changes in the spectrum were observed
formation of Fe(III)-6 complex, UV-vis spectrum change ([2]; overnight incubation): bathocromic shift of the 240nm-band to the appearance of another one at 250nm
IC50 [3]: 2010 ± 500 nM
